Measurements reported in PubChem BioAssay (NCI).
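How tested: cells in 96-well plates exposed to compound for 48 hours at five concentrations. TGI: total growth inhibition.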

Key:
Assay in all cases: NCI-60 cell line screen, 48 h
[1] = system: SF-268 CNS
[2] = system: SK-MEL-28 melanoma
[3] = system: DLD-1 colon
[4] = system: BT-549 breast
[5] = system: IGROV1 ovarian
[6] = system: COLO 205 colon
[7] = system: SNB-75 CNS
[8] = system: MOLT-4 leukemia
[9] = system: SW-620 colon
[10] = system: SF-295 CNS
[11] = system: KM12 colon
[12] = system: MDA-MB-435
[13] = system: SNB-78 CNS
[14] = system: HCC-2998 colon
[15] = system: LOX IMVI melanoma
[16] = system: DMS 273 small cell lung
[17] = system: CAKI-1 renal
[18] = system: SK-MEL-2 melanoma
[19] = system: ACHN renal
[20] = system: RPMI-8226 leukemia
[21] = system: CCRF-CEM leukemia
[22] = system: HCT-15 colon
[23] = system: MDA-MB-231 breast
[24] = system: SK-MEL-5 melanoma
[25] = system: DU-145 prostate
[26] = system: HOP-92 NSCLC
[27] = system: HOP-62 NSCLC
[28] = system: OVCAR-8 ovarian
[29] = system: K-562 leukemia
[30] = system: OVCAR-5 ovarian
[31] = system: KM20L2 colon
[32] = system: TK-10 renal
[33] = system: A498 renal
[34] = system: EKVX NSCLC
[35] = system: SN12C renal
[36] = system: OVCAR-3 ovarian
[37] = system: SF-539 CNS
[38] = system: 786-0 renal
[39] = system: HL-60(TB) leukemia
[40] = system: HT29 colon
[41] = system: PC-3 prostate
[42] = system: UO-31 renal
[43] = system: LXFL 529 NSCLC
[44] = system: SK-OV-3 ovarian
[45] = system: NCI-H522 lung
[46] = system: MALME-3M melanoma
[47] = system: M14 melanoma
[48] = system: NCI-H460 lung
[49] = system: UACC-62 melanoma
[50] = system: XF 498 CNS
[51] = system: NCI-H23 lung
[52] = system: SR leukemia
[53] = system: DMS 114 small cell lung
[54] = system: HOP-18 NSCLC
[55] = system: SNB-19 CNS
[56] = system: HS 578T breast
[57] = system: OVCAR-4 ovarian
[58] = system: A549 NSCLC
[59] = system: RXF 393 renal
[60] = system: T-47D breast
[61] = system: NCI-H226 lung
[62] = system: MDA-N
[63] = system: HCT-116 colon
[64] = system: UACC-257 melanoma
[65] = system: U251 CNS

Q: Which TGI [1] does the source give for COc1cccc2c1C(=O)c1c(O)c3c(c(O)c1C2=O)C[C@@](O)(C(=O)CO)C[C@@H]3OC1CC(N(C)C)C(O)C(C)O1 (stereo not given in full) here?
A: 360 nM

Q: What about the TGI [2] of the same compound?
A: 168 nM

Q: And the TGI [3]?
A: 176 nM

Q: And the TGI [4]?
A: 556 nM

Q: And the TGI [5]?
A: 183 nM

Q: What about the TGI [6] of the same compound?
A: 18.6 nM

Q: What about the TGI [7] of the same compound?
A: 138 nM

Q: And the TGI [8]?
A: 299 nM

Q: What about the TGI [9] of the same compound?
A: 1380 nM

Q: What about the TGI [10] of the same compound?
A: 173 nM

Q: And the TGI [11]?
A: 338 nM

Q: What about the TGI [12] of the same compound?
A: 165 nM

Q: And the TGI [13]?
A: 645 nM

Q: And the TGI [14]?
A: 258 nM

Q: What about the TGI [15] of the same compound?
A: 10.2 nM

Q: What about the TGI [16] of the same compound?
A: 158 nM

Q: What about the TGI [17] of the same compound?
A: 73.3 nM

Q: And the TGI [18]?
A: 88.5 nM

Q: What about the TGI [19] of the same compound?
A: 96.6 nM

Q: And the TGI [20]?
A: 825 nM

Q: And the TGI [21]?
A: 7.59 µM

Q: What about the TGI [22] of the same compound?
A: 765 nM

Q: And the TGI [23]?
A: 615 nM

Q: And the TGI [24]?
A: 45.5 nM

Q: What about the TGI [25] of the same compound?
A: 803 nM

Q: And the TGI [26]?
A: 312 nM

Q: And the TGI [27]?
A: 272 nM

Q: And the TGI [28]?
A: 1520 nM

Q: And the TGI [29]?
A: 9.41 µM

Q: And the TGI [30]?
A: 352 nM

Q: What about the TGI [31] of the same compound?
A: 591 nM

Q: What about the TGI [32] of the same compound?
A: 2280 nM

Q: And the TGI [33]?
A: < 19.5 nM

Q: What about the TGI [34] of the same compound?
A: 413 nM

Q: And the TGI [35]?
A: 1140 nM

Q: And the TGI [36]?
A: 858 nM

Q: And the TGI [37]?
A: 121 nM

Q: What about the TGI [38] of the same compound?
A: 1510 nM

Q: What about the TGI [39] of the same compound?
A: 20.6 nM

Q: What about the TGI [40] of the same compound?
A: 1820 nM

Q: And the TGI [41]?
A: 102 nM

Q: And the TGI [42]?
A: 427 nM

Q: And the TGI [43]?
A: 1600 nM

Q: What about the TGI [44] of the same compound?
A: 1760 nM

Q: What about the TGI [45] of the same compound?
A: 92.2 nM

Q: What about the TGI [46] of the same compound?
A: 57.6 nM

Q: What about the TGI [47] of the same compound?
A: 104 nM

Q: What about the TGI [48] of the same compound?
A: 16.7 nM

Q: And the TGI [49]?
A: 26.1 nM

Q: And the TGI [50]?
A: 55.3 nM

Q: What about the TGI [51] of the same compound?
A: 94.6 nM

Q: What about the TGI [52] of the same compound?
A: 18.8 nM

Q: And the TGI [53]?
A: 204 nM

Q: What about the TGI [54] of the same compound?
A: 2950 nM

Q: What about the TGI [55] of the same compound?
A: 649 nM

Q: What about the TGI [56] of the same compound?
A: 34.4 nM

Q: And the TGI [57]?
A: 266 nM

Q: What about the TGI [58] of the same compound?
A: 785 nM

Q: And the TGI [59]?
A: 82.7 nM

Q: And the TGI [60]?
A: 96.9 nM

Q: What about the TGI [61] of the same compound?
A: 81.4 nM

Q: And the TGI [62]?
A: 83.3 nM

Q: What about the TGI [63] of the same compound?
A: 12.3 µM

Q: What about the TGI [64] of the same compound?
A: 153 nM

Q: What about the TGI [65] of the same compound?
A: 2750 nM
